Experiment [1] deals with Serine/threonine-protein kinase pim-1 (Homo sapiens, UniProt P11309).
The target of experiment [2] is Serine/threonine-protein kinase MRCK alpha (Homo sapiens, UniProt Q5VT25).
For experiment [3], the target named is T1, Mitogen-activated protein kinase kinase kinase kinase 3 (Homo sapiens, UniProt Q8IVH8).
T1 sequence (Q8IVH8 whole entry): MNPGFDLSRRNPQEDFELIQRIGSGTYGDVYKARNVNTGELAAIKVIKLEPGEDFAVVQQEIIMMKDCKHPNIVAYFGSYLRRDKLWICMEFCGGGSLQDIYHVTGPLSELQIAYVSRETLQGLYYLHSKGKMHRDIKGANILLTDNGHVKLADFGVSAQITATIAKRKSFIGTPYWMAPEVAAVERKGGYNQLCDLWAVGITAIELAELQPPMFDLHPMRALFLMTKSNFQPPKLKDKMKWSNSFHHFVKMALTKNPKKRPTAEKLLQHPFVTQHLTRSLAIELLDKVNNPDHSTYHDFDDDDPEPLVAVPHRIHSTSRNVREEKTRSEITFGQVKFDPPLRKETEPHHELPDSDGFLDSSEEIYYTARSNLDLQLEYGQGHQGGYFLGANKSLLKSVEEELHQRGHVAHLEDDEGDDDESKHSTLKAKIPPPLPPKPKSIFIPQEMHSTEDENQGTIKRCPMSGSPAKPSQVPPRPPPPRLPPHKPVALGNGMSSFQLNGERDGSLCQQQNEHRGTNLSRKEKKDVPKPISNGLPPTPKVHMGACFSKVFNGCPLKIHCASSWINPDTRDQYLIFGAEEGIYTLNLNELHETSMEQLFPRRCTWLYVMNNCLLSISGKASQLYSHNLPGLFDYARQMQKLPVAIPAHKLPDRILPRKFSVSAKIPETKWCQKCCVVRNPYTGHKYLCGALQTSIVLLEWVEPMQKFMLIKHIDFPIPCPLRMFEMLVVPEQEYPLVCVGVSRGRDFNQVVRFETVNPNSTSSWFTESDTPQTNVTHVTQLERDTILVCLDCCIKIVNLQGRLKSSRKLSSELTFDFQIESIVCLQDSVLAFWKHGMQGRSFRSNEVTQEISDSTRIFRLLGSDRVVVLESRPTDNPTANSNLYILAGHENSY

Experiment [4] has as its target Receptor-interacting serine/threonine-protein kinase 3 (Homo sapiens, UniProt Q9Y572).
In experiment [5] the target is T2, Dual specificity mitogen-activated protein kinase kinase 6 (Homo sapiens, UniProt P52564).
T2 sequence (P52564 whole entry): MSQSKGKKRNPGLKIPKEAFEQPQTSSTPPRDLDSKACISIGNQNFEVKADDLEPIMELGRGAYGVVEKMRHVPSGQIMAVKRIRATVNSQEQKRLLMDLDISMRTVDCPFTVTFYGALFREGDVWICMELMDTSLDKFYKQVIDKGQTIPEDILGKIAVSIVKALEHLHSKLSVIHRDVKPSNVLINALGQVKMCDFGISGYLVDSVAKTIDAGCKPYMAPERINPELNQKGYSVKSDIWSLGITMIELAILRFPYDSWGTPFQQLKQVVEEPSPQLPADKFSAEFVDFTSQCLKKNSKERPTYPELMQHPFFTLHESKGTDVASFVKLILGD

In experiment [6] the target is T3, Cysteine--tRNA ligase, cytoplasmic (Homo sapiens, UniProt P49589).
T3 sequence (P49589 whole entry): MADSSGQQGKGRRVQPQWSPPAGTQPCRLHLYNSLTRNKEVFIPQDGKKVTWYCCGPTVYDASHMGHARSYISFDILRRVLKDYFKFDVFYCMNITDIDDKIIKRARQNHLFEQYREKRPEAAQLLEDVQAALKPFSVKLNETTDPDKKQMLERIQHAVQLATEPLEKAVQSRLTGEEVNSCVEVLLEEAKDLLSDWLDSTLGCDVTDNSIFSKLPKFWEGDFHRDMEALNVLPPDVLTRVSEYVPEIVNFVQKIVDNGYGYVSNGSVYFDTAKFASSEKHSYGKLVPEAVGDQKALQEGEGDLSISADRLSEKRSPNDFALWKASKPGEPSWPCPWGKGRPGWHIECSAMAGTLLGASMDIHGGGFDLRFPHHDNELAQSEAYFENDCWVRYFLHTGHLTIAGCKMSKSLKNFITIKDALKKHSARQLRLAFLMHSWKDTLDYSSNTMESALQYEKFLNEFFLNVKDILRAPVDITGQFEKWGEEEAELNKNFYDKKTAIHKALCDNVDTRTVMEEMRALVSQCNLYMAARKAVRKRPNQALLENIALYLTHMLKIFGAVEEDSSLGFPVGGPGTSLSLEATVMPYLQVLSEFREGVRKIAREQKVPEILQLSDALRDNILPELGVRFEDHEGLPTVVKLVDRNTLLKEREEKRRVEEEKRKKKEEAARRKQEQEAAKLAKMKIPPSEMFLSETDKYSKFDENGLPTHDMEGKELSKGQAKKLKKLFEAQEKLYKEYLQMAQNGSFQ

For experiment [7], the target named is RAC-gamma serine/threonine-protein kinase (Homo sapiens, UniProt Q9Y243).
RAC-gamma serine/threonine-protein kinase, sequence (Q9Y243 whole entry): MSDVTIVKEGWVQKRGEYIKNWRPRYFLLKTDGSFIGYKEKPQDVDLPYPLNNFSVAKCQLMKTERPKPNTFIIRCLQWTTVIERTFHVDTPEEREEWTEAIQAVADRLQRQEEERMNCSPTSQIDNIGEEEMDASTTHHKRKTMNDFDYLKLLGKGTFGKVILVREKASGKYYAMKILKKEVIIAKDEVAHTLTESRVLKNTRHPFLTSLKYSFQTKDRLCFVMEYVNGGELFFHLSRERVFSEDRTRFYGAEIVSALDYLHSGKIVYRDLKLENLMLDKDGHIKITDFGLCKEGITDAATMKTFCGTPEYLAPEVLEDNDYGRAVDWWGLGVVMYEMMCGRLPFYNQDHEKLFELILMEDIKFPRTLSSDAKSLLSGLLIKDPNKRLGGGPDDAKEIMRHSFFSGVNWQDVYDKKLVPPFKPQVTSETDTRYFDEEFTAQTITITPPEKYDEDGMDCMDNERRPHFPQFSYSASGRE
Experiment [8] addresses T4, Serine/threonine-protein kinase ULK3 (Homo sapiens, UniProt Q6PHR2).
T4 sequence (Q6PHR2 whole entry): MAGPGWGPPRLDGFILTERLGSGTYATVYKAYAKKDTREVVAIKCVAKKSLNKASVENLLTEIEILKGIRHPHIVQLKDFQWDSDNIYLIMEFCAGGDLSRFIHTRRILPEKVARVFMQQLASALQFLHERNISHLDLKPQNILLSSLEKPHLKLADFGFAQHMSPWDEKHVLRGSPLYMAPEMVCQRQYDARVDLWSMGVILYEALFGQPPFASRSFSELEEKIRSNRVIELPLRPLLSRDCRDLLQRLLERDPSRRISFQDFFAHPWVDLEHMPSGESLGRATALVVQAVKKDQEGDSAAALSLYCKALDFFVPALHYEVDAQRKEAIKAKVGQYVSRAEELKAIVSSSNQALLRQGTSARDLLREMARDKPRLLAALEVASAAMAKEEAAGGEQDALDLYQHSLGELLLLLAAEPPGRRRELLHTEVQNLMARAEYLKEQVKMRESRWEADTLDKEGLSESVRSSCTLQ

SMILES strings stand for the structures. Calls of active or inactive are those of the source.

Usually Kd stands for the equilibrium constant for the complex coming apart.
Also: in the data inactive means no Kd found up to 30 µM.

Serine/threonine-protein kinase MRCK alpha, sequence (Q5VT25 whole entry): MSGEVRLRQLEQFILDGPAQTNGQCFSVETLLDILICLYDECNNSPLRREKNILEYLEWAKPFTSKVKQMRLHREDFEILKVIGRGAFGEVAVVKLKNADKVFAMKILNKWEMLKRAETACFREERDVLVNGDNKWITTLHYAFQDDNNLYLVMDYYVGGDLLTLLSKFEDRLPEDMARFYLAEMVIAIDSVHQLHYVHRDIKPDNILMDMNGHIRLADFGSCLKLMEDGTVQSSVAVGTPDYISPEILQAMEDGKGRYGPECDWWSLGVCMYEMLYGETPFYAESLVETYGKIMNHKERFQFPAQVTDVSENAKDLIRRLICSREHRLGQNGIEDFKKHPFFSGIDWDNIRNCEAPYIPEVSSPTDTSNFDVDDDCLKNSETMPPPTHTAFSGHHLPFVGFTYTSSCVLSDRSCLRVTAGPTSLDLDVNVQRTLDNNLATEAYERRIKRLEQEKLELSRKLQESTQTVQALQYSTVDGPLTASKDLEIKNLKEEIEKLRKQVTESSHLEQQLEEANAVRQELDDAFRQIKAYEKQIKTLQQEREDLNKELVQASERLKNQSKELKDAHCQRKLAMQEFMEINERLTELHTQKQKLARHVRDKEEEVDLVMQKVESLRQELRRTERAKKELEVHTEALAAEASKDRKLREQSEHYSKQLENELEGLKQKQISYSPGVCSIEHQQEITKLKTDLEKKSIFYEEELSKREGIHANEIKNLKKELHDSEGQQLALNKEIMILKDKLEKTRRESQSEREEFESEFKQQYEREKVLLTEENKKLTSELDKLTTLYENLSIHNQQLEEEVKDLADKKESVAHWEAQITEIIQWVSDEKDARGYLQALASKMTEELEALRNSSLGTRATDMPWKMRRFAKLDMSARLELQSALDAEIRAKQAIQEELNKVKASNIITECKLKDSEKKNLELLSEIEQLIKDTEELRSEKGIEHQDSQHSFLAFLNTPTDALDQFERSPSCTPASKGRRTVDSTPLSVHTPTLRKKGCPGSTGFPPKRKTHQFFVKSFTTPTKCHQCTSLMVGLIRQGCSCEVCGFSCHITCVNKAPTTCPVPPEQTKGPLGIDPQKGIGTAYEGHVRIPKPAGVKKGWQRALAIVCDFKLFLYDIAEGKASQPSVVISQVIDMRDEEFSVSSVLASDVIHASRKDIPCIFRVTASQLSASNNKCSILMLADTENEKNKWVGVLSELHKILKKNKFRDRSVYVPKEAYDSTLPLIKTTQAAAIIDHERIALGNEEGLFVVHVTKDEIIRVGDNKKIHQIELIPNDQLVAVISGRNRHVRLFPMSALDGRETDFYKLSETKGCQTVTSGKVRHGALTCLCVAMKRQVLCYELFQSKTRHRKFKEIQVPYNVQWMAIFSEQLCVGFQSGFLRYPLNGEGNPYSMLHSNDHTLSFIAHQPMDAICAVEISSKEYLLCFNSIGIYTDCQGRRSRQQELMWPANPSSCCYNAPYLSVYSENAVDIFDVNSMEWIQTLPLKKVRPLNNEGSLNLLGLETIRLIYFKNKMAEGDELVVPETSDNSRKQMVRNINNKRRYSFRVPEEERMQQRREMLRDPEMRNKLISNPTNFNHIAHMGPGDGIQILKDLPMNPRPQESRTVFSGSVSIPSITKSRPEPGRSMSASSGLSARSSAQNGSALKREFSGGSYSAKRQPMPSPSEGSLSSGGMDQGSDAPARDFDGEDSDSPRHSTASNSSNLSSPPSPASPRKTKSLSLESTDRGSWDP
Serine/threonine-protein kinase pim-1, sequence (P11309 whole entry): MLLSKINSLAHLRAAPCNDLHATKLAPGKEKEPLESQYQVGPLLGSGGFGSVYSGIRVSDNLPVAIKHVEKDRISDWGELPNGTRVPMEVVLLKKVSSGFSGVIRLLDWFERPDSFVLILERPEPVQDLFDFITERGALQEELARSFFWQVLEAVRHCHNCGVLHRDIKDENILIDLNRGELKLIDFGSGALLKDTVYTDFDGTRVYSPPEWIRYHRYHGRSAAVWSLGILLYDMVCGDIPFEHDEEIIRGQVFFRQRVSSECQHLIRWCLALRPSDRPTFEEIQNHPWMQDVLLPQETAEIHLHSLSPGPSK
Receptor-interacting serine/threonine-protein kinase 3, sequence (Q9Y572 whole entry): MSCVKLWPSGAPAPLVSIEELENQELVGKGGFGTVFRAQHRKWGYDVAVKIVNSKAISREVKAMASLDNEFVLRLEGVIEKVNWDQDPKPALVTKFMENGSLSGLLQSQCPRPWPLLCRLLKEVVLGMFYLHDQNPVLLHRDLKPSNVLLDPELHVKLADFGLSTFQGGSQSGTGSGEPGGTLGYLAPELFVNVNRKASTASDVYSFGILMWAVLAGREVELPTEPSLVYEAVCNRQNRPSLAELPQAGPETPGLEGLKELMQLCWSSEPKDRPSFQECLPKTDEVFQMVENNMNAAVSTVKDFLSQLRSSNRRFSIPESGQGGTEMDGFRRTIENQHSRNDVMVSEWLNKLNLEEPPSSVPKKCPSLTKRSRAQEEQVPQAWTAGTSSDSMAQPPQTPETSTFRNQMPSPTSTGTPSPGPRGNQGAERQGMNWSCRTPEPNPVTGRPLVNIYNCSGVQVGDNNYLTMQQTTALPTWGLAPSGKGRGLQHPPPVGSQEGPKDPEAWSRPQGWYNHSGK

Turning to `CC(=O)c1cnc2ccc(-c3cc(Cl)c(O)c(Cl)c3)nc2c1N[C@H]1CC[C@H](CN(C)C)CC1`, the Kd in experiment [1] was 0.014 µM (active); in experiment [2] it was > 30 µM (inactive); in experiment [3], > 30 µM (inactive); in experiment [4] it was 0.324 µM; in experiment [5] it was 4.56 µM (active); in experiment [6], > 30 µM (inactive). Moreover, in experiment [7], the Kd was > 30 µM (inactive).
As to `CCNC(=O)C#Cc1ccc2c(c1)NC(=O)/C2=C(\Nc1ccc(CN(C)C)cc1)c1ccccc1`, the Kd in experiment [1], in experiment [2], in experiment [3], in experiment [4], in experiment [5] and in experiment [6] was > 30 µM (inactive) in each case. Also, the Kd in experiment [8] is 0.612 µM (active).
For `C=CC(=O)N1CCC[C@H](n2c(=O)n(-c3ccc(Oc4ccccc4)cc3)c3c(N)ncnc32)C1`, the Kd in experiment [1], in experiment [2], in experiment [3], in experiment [4], in experiment [5] and in experiment [6] was > 30 µM (inactive) throughout. Further, the Kd in experiment [7] and in experiment [8] was > 30 µM (inactive) each time.
Consider `Cc1nc2cc(-c3nn(C(C)C)c4ncnc(N)c34)ccc2o1`, for which the Kd in experiment [1] was > 30 µM (inactive); in experiment [2], > 30 µM (inactive); in experiment [3], > 30 µM (inactive); in experiment [4], 2.38 µM (active); in experiment [5] it was > 30 µM (inactive); in experiment [6] it was > 30 µM (inactive). The Kd in experiment [7] and in experiment [8] was > 30 µM (inactive) in each case.
As for `COCc1c(-c2ccc(NC(=O)Nc3cc(C(F)(F)F)ccc3F)c(F)c2)c2c(N)ncnn2c1CN1CCOCC1`, the Kd in experiment [1], in experiment [2], in experiment [3], in experiment [4], in experiment [5] and in experiment [6] was > 30 µM (inactive) each time. Moreover, the Kd in experiment [7] and in experiment [8] was > 30 µM (inactive) throughout.
Consider `COc1cc(Nc2ncc3c(n2)-c2ccc(Cl)cc2C(c2c(F)cccc2OC)=NC3)ccc1C(=O)O` [ALISERTIB], for which the Kd in experiment [3], in experiment [4], in experiment [5] and in experiment [6] was > 30 µM (inactive) each time.
As for `O=C(Nc1c[nH]nc1-c1nc2cc(CN3CCOCC3)ccc2[nH]1)NC1CC1` [AT-9283], the Kd in experiment [1] was > 30 µM (inactive); in experiment [2], > 30 µM (inactive); in experiment [3] it was > 30 µM (inactive); in experiment [4], > 30 µM (inactive); in experiment [5], 3.54 µM (active); in experiment [6], > 30 µM (inactive). In experiment [7], the Kd was > 30 µM (inactive).
Turning to `CNC(=O)c1ccccc1Sc1ccc2c(/C=C/c3ccccn3)n[nH]c2c1` [AXITINIB], the Kd in experiment [4] and in experiment [6] was > 30 µM (inactive) throughout.
For the molecule `CC(C)(C)c1nc(-c2cccc(NS(=O)(=O)c3c(F)cccc3F)c2F)c(-c2ccnc(N)n2)s1` [DABRAFENIB], the Kd in experiment [2] is > 30 µM (inactive); in experiment [3] it was > 30 µM (inactive); in experiment [4] it was 0.283 µM (active); in experiment [5], > 30 µM (inactive); in experiment [6] it was > 30 µM (inactive); in experiment [8], 1.48 µM.
On to `Cn1cc(C2=C(c3cn(C4CCN(Cc5ccccn5)CC4)c4ccccc34)C(=O)NC2=O)c2ccccc21` [ENZASTAURIN], for which the Kd in experiment [4] and in experiment [6] was > 30 µM (inactive) in each case.
In the case of `C[C@@H](Oc1cc(-n2cnc3ccc(CN4CCN(C)CC4)cc32)sc1C(N)=O)c1ccccc1C(F)(F)F` [GSK-461364], the Kd in experiment [4] and in experiment [6] was > 30 µM (inactive) each time.
For `CCn1cc(-c2ccnc3[nH]c(-c4cccc(CN(C)C)c4)cc23)c(-c2ccc(NC(=O)N(C)C)cc2)n1` [GSK-1070916], the Kd was > 30 µM (inactive) in experiment [1]; > 30 µM (inactive) in experiment [2]; > 30 µM (inactive) in experiment [4]; > 30 µM (inactive) in experiment [5]; > 30 µM (inactive) in experiment [6]; 3.29 µM (active) in experiment [7]. Also, in experiment [8], the Kd is > 30 µM (inactive).
In the case of `O=C(Nc1cc(C(F)(F)F)cc(C(F)(F)F)c1)c1cc(Cl)ccc1O` [IMD-0354], the Kd in experiment [3], in experiment [4], in experiment [5], in experiment [6] and in experiment [8] was > 30 µM (inactive) in each case.
Consider `NC1(c2ccc(-c3nc4ccn5c(=O)[nH]nc5c4cc3-c3ccccc3)cc2)CCC1` [MK-2206], for which the Kd in experiment [1], in experiment [2], in experiment [3], in experiment [4], in experiment [5] and in experiment [6] was > 30 µM (inactive) in each case. The Kd in experiment [8] was > 30 µM (inactive).
On to `Cc1[nH]c(/C=C2\C(=O)Nc3ccccc32)c(C)c1CCC(=O)O` [ORANTINIB], for which the Kd is > 30 µM (inactive) in experiment [4], > 30 µM (inactive) in experiment [5], > 30 µM (inactive) in experiment [6] and 1.46 µM (active) in experiment [8].
In the case of `CC(=O)NCC(=O)N1[C@@H]2CC[C@H]1c1ccc(Nc3ncc(C(F)(F)F)c(NC4CCC4)n3)cc12` [PF-03814735], the Kd in experiment [3] was 0.766 µM (active); in experiment [4] it was > 30 µM (inactive); in experiment [5], > 30 µM (inactive); in experiment [6] it was > 30 µM (inactive); in experiment [8] it was 0.019 µM (active).
In the case of `O=C(NOCCO)c1cc(CN2OCCCC2=O)c(F)c(F)c1Nc1ccc(I)cc1F` [RO-4987655], the Kd in experiment [4] and in experiment [6] was > 30 µM (inactive) in each case.
As for `N#CC[C@H](C1CCCC1)n1cc(-c2ncnc3[nH]ccc23)cn1` [RUXOLITINIB], the Kd in experiment [4] and in experiment [6] was > 30 µM (inactive) each time.
